Data: PubChem BioAssay AID602161 (Broad Institute, 2011)
Records with an inconclusive call do not appear.

Biological target: Heat shock protein HSP 90-alpha (Homo sapiens) (UniProt P07900)
Assay: human Hsp90 inhibitors in yeast GR reporter, dose response, selectivity assay for Plasmodium Hsp90 inhibitor project, S. cerevisiae, beta-galactosidase luminescence, dry powder (AID 602161)
Conditions: S. cerevisiae HsHsp90 GR reporter, beta-gal luminescence

AC50 [µM]	Structure (SMILES)
9.72	O=C(CSCC(=O)N1CCCCC1)Nc1nc(-c2ccc(Cl)s2)cs1
22.2	CCOc1cc(S(=O)(=O)NC2CCCCCC2)ccc1F
9.79	COc1ccc2c(c1)C=C(C(=O)NCc1ccc(Cl)cc1)CO2
12.6	Cc1ccc(OCc2n[nH]c(=S)n2C2CCCCC2)cc1
2.6	O=S(=O)(NC1CCCCCC1)c1ccc(Br)s1
9.6	O=S(=O)(/C=C/c1ccccc1)NC1CCCCCCC1
